Reference: ChEMBL document CHEMBL5046289, “Targeting the S2 Subsite Enables the Structure-Based Discovery of Novel Highly Selective Factor XIa Inhibitors” (J Med Chem, 2022)
The source made the active and inactive calls. No cut-off for these calls is given here.

Columns and labels:
Homo sapiens [1] = species: Homo sapiens; assay: Selectivity index, ratio of IC50 for coagulation factor XIIa (unknown origin) to IC50 for coagulation factor XIa (unknown origin)
Coagulation factor XI [2] = biological target: T1, Coagulation factor XI (Homo sapiens, UniProt P03951); conditions: dose 50.0 nM, time 1.0 hrs
T1 sequence (P03951 19-387 limits assumed): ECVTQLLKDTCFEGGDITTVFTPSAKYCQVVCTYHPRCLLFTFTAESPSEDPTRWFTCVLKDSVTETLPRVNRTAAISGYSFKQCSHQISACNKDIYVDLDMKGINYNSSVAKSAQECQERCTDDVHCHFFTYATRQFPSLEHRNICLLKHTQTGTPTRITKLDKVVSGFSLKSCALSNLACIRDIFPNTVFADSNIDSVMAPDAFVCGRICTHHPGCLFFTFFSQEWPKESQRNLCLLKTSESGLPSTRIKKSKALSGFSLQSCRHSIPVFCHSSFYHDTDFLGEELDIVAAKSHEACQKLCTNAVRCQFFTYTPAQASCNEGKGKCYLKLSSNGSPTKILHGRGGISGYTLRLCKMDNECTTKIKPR
T1 sequence (P03951 388-625 limits assumed): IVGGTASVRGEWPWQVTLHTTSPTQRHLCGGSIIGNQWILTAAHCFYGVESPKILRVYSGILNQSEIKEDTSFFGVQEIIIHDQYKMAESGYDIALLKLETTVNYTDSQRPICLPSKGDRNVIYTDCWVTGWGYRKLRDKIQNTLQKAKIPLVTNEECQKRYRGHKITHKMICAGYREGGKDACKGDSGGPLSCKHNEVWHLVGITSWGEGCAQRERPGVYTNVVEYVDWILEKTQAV

Homo sapiens [3] = species: Homo sapiens; assay: Selectivity index, ratio of IC50 for coagulation factor IXa (unknown origin) to IC50 for coagulation factor XIa (unknown origin)
[4] = biological target: T2, Coagulation factor VII (Homo sapiens) (UniProt P08709); assay: Inhibition of coagulation factor VIIa (unknown origin) assessed as chromogenic substrate using chromozyme t-PA as substrate at 1 mM incubated for 1 hr by spectrophotometer based microplate reader method
T2 sequence (whole entry): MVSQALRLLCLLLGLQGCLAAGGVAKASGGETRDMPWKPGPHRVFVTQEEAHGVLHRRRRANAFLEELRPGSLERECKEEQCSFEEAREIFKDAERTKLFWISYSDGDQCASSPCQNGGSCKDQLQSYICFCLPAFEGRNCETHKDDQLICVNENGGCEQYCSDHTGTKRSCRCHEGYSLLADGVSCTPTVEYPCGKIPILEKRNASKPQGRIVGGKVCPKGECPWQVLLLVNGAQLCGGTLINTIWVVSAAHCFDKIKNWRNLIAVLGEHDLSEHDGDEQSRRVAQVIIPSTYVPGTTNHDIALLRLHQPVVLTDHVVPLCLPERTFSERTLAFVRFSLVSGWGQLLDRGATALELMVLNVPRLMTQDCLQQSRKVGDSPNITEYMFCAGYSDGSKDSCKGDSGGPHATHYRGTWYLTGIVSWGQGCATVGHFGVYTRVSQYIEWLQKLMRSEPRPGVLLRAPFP

Prothrombin [5] = biological target: T3, Prothrombin (Homo sapiens, UniProt P00734); assay: Inhibition of thrombin (unknown origin) assessed as chromogenic substrate using CS-10(38) as substrate incubated for 1 hr by spectrophotometer based microplate reader method
Homo sapiens [6] = species: Homo sapiens; assay: Selectivity index, ratio of IC50 for coagulation factor VIIa (unknown origin) to IC50 for coagulation factor XIa (unknown origin)
Plasma kallikrein = Plasma kallikrein (Homo sapiens, UniProt P03952); assay: Inhibition of plasma kallikrein (unknown origin) assessed as chromogenic substrate hydrolysis using CS-31(02) as substrate incubated for 1 hr by spectrophotometer based microplate reader method
Chain of Plasma kallikrein (P03952 20-390 limits assumed): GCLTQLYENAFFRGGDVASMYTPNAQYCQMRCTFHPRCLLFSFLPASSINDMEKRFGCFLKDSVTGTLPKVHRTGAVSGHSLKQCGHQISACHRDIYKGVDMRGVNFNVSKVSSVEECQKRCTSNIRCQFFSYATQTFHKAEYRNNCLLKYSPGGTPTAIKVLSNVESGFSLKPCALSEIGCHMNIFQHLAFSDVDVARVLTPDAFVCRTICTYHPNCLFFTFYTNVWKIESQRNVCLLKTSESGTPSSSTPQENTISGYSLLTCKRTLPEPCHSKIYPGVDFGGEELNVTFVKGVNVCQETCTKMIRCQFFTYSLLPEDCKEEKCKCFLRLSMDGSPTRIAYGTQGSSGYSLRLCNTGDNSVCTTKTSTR
Chain of Plasma kallikrein (P03952 391-638 limits assumed): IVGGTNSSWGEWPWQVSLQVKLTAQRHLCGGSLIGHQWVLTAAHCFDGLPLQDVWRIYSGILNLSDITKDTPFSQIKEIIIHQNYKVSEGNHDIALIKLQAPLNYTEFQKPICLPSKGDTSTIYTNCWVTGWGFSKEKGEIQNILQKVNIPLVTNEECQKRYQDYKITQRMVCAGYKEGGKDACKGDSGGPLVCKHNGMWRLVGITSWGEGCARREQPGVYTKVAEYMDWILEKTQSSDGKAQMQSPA

Coagulation factor X = Coagulation factor X (Homo sapiens, UniProt P00742); assay: Inhibition of coagulation factor Xa (unknown origin) assessed as chromogenic substrate using CS-11(22) as substrate incubated for 1 hr by spectrophotometer based microplate reader method
Chain of Coagulation factor X (P00742 41-179 limits assumed): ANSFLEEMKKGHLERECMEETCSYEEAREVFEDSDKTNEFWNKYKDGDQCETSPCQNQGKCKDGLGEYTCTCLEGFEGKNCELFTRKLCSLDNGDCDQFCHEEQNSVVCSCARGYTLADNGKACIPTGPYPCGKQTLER
Chain of Coagulation factor X (P00742 235-488 limits assumed): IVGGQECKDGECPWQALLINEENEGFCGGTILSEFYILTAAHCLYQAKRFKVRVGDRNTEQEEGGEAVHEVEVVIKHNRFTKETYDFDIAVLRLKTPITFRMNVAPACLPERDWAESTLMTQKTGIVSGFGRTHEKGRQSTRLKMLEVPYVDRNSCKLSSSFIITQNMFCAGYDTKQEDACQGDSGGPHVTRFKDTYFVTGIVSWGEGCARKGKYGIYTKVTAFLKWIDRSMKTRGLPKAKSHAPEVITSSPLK

Homo sapiens [7] = species: Homo sapiens; assay: Selectivity index, ratio of IC50 for trypsin (unknown origin) to IC50 for coagulation factor XIa (unknown origin)
Homo sapiens [8] = species: Homo sapiens; assay: Selectivity index, ratio of IC50 for coagulation factor Xa (unknown origin) to IC50 for coagulation factor XIa (unknown origin)
[9] = biological target: Serine protease 1 (Homo sapiens) (UniProt P07477); assay: Inhibition of trypsin (unknown origin) assessed as chromogenic substrate using CS-11(22) as substrate at 1 mM incubated for 1 hr by spectrophotometer based microplate reader method
Chain of Serine protease 1 (Homo sapiens) (P07477 whole entry): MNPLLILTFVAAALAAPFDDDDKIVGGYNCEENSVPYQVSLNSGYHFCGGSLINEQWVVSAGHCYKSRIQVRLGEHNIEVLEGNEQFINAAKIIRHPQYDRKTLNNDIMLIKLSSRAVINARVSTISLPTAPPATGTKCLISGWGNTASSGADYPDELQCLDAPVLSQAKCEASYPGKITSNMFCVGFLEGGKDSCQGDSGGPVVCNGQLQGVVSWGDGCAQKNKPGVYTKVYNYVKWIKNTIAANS

Homo sapiens [10] = species: Homo sapiens; assay: Selectivity index, ratio of IC50 for thrombin (unknown origin) to IC50 for coagulation factor XIa (unknown origin)
Homo sapiens [11] = species: Homo sapiens; assay: Selectivity index, ratio of IC50 for plasma kallikrein (unknown origin) to IC50 for coagulation factor XIa (unknown origin)
[12] = biological target: Coagulation factor IX (Homo sapiens) (UniProt P00740); assay: Inhibition of coagulation factor IXa (unknown origin) assessed as chromogenic substrate using ADG299 as substrate at 1 mM incubated for 1 hr by spectrophotometer based microplate reader method
Chain of Coagulation factor IX (Homo sapiens) (P00740 47-191 limits assumed): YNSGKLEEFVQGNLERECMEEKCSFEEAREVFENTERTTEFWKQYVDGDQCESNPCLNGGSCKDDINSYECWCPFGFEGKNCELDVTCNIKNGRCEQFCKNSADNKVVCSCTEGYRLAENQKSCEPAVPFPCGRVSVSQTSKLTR
Chain of Coagulation factor IX (Homo sapiens) (P00740 227-461 limits assumed): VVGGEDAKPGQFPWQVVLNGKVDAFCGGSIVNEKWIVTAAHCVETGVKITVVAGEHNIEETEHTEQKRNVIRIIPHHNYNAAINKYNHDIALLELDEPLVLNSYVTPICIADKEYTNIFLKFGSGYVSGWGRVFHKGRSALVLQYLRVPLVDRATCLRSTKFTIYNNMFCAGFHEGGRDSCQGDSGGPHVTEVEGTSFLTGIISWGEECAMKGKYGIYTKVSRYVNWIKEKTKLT

Prothrombin [13] = biological target: T3, Prothrombin; assay: Inhibition of thrombin (unknown origin) assessed as chromogenic substrate using CS-10(38) as substrate at 1 mM incubated for 1 hr by spectrophotometer based microplate reader method
[14] = biological target: T4, Coagulation factor XII (Homo sapiens) (UniProt P00748); assay: Inhibition of coagulation factor XIIa (unknown origin) assessed as chromogenic substrate using TH5253 as substrate at 1 mM incubated for 1 hr by spectrophotometer based microplate reader method
T4 sequence (whole entry): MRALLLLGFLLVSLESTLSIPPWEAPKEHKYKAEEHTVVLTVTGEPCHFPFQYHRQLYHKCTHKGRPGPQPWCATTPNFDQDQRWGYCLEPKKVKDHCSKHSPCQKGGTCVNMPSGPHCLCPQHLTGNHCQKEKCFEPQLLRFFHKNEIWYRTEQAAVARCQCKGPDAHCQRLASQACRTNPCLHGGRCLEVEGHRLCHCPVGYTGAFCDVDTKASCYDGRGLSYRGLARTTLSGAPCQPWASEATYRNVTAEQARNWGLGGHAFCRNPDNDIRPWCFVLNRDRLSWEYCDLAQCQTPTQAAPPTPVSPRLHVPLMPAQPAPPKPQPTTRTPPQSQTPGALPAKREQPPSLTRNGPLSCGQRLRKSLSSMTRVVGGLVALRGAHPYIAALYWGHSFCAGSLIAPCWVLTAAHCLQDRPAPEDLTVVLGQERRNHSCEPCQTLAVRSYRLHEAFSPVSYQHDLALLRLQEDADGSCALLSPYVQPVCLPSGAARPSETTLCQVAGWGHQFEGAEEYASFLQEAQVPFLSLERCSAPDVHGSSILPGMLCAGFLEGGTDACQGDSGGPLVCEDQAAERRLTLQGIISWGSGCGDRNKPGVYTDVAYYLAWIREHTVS

Coagulation factor XI [15] = biological target: T1, Coagulation factor XI; assay: Inhibition of coagulation factor XIa (unknown origin) assessed as chromogenic substrate hydrolysis using CS-21(66) as substrate incubated for 1 hr by spectrophotometer based microplate reader method

Compound: O=C(/C=C/c1cc(Cl)ccc1-n1cnnn1)N[C@@H](CC(=O)N1CCSCC1)C(=O)Nc1ccc(C(=O)O)cc1
- Ratio IC50 (Homo sapiens [1]): > 5000
- inhibition (Coagulation factor XI [2]): 52.3%
- Ratio IC50 (Homo sapiens [3]): > 5000
- inhibition [4]: inactive
- inhibition (Prothrombin [5]): inactive
- Ratio IC50 (Homo sapiens [6]): > 5000
- IC50 (Plasma kallikrein): 14 µM
- IC50 (Coagulation factor X): 980 µM
- Ratio IC50 (Homo sapiens [7]): > 5000
- Ratio IC50 (Homo sapiens [8]): > 5000
- inhibition [9]: inactive
- Ratio IC50 (Homo sapiens [10]): > 5000
- Ratio IC50 (Homo sapiens [11]): 756
- inhibition [12]: inactive
- inhibition (Prothrombin [13]): inactive
- inhibition [14]: inactive
- IC50 (Coagulation factor XI [15]): 18.5 nM
